The subject of one data set is HBV. Put plainly: Anti-HBV activity in vitro in HepG2.2.15 cells (extracellular HBV DNA by qPCR). Format: cell-based, Hepatitis B virus. The conditions noted are these: Hepatitis B virus; HepG2.2.15 cells; in-house data; read-out: EC50. An excerpt: HepG2.2.15 and HepDE19 are stably-transfected cell lines containing the HBV genome. Both cell lines are derived from the hepatoblastoma cell line Hep G2 (American Type Culture Collection, ATCC® HB-8065™) by the published procedures described in references: MA Selles et al. Proc. Natl. Acad. Sci. USA 1987, 84, 1005-1009 and H Guo et al. Journal of Virology 2007, 81, 12472-12484, respectively. Both cell lines were maintained in Dulbecco's modified Eagle's medium (DMEM)-F12 medium supplemented with 10% fetal bovine serum, 100 U/mL penicillin, 100 μg/mL streptomycin, and 0.5 mg/mL of G418.
While HepG2.2.15 cells constitutively support HBV replication and production of virus particles, HepDE19 cells are inducible by tetracycline. Addition of 1 μg/mL tetracycline in culture medium suppresses HBV replication in HepDE19 cells, whereas switching to tetracycline-free medium resumes this process.
HepG2.2.15 cells were seeded into 96-well plates (3×10^4 cells in 100 μl media per well) and incubated overnight at 37° C. The test compounds were serially half-log diluted in DMSO, then diluted 100 times in culture media. 100 μL diluted compounds were added into the plates to reach 0.5% final concentration of DMSO in every well. Five days after compound treatment, culture supernatant was collected for further analysis.
For quantitative PCR detection of extracellular HBV DNA, 100 μL culture supernatant was collected and processed in MagNA Pure 96 Nucleic Acid Purification System (Roche Applied Science) for viral DNA extraction. The extracted samples were subjected to HBV DNA quantification by qPCR.
The compounds of the present invention were tested for their capacity to inhibit a HBV activity and activation as described herein.
On the technique in general: In qPCR the cycle at which signal appears reflects the starting amount.

The nature of data set [1]: Metabolic stability study in human microsome. The data set is classed as in vitro ADME. On the procedure: Human Microsomes were preincubated with test compound for 10 min at 37° C. in 100 mM phosphate buffer, pH 7.4. The reactions were initiated by adding NADPH or NADPH regenerating system to give a final incubation volume of 400 μL. For NADPH system, the final incubations contained 1 μM test compound, 0.5 mg/mL liver microsomal protein, 1 mM NADPH in 100 mM phosphate buffer, pH 7.4. For the NADPH regenerating system, the final incubations contained 1 μM test compound, 0.5 mg/mL liver microsomal protein, 3 mM glucose 6-phosphate, 1 mM NADP, 3 mM MgCl2 and 0.05 mg/mL glucose 6-phosphate dehydrogenase in 100 mM phosphate buffer, pH 7.4. After incubation times of 0, 3, 6, 9, 15 and 30 minutes at 37° C., 50 μL samples was removed and transferred to 150 μL methanol solution which was maintained at 4° C. containing 2 μM tolbutamide (internal standard) to terminating the reaction. Following precipitation and centrifugation, the amount of compound remaining in the samples were determined by LC-MS/MS. Controls of no NADPH or NADPH regenerating system at zero and 30 min were also prepared and analyzed.

Data set [2] can be described thus: Lyophilisation solubility assay (Lysa). Format: physicochemical. The conditions noted are these: phosphate buffer, pH 6.5, aqueous buffer, thermodynamic from solid. On the procedure: The aqueous solubility is an important physico-chemical property that plays a significant role in various physical and biological processes. It is desirable to have good solubility which enables good permeability and gastric and intestinal absorption, linear dose proportionality, less PK variability, and easy formulation for PD/PK studies. […] Lyophilisation solubility assay (Lysa) is a well adopted high throughput assay to measure compound solubility in industry.
Samples are prepared in duplicate from 10 mM DMSO stock solutions. After evaporation of DMSO with a centrifugal vacuum evaporator, the residue is solved in 0.05 M phosphate buffer (pH 6.5), stirred for one hour and shaken for two hours. After one night, the solutions is filtered using a microtiter filter plate and the filtrate and its 1/10 dilution are then analyzed by direct UV measurement or by HPLC-UV. […] The results are in μg/mL.

Converted amounts (≈) assume the structure as drawn. A value given as a limit tells only on which side of the number the result lay.

One may read the EC50 as the midpoint of the concentration-response curve. On to `COC(=O)C1=C(CN2CC(F)(F)C[C@H]2C(=O)O)NC(c2ccc(F)cc2F)=N[C@H]1c1ccc(F)cc1Cl` [Example 33, (R)-6-((S)-2-Carboxy-4,4-difluoro-pyrrolidin-1-ylmethyl)-4-(2-chloro-4-fluoro-phenyl)-2-(2,4-difluoro-phenyl)-1,4-dihydro-pyrimidine-5-carboxylic acid methyl ester], for which, in the data set on HBV, the 50% effective concentration (EC50) was 0.023 µM. Besides, in data set [1], the “Human Hepatic Clearance” value turned out to be 4.15 mL/min/kg.

As usually defined, the solubility (thermodynamic) is the concentration in solution at equilibrium with solid. Take `COC(=O)C1=C(CN2CC(F)(F)C[C@H]2C(=O)O)NC(c2nc(C)co2)=N[C@H]1c1ccc(F)cc1Cl` [Example 15, (R)-6-((S)-2-Carboxy-4,4-difluoro-pyrrolidin-1-ylmethyl)-4-(2-chloro-4-fluoro-phenyl)-2-(4-methyl-oxazol-2-yl)-1,4-dihydro-pyrimidine-5-carboxylic acid methyl ester]: the solubility (thermodynamic) in data set [2] was > 627 µg/mL. Further, in data set [1], the “Human Hepatic Clearance” value is on record as 3.53 mL/min/kg.

On to `COC(=O)C1=C(CN2CCSC(C)(C)[C@H]2C(=O)O)NC(c2nccs2)=N[C@H]1c1ccc(F)cc1Cl` [Example 90, (3R)-4-[[(4R)-4-(2-Chloro-4-fluoro-phenyl)-5-methoxycarbonyl-2-thiazol-2-yl-1,4-dihydropyrimidin-6-yl]methyl]-2,2-dimethyl-thiomorpholine-3-carboxylic acid], for which the solubility (thermodynamic) in data set [2] is > 610 µg/mL. The “Human Hepatic Clearance” value in data set [1] is 5.52 mL/min/kg.

Consider `CCOC(=O)C1=C(CN2CC(F)(F)C[C@H]2C(=O)O)NC(c2nccs2)=NC1c1ccc(F)cc1Cl` (stereo partly drawn) [Example 26, 6-((S)-2-Carboxy-4,4-difluoro-pyrrolidin-1-ylmethyl)-4-(2-chloro-4-fluoro-phenyl)-2-thiazol-2-yl-1,4-dihydro-pyrimidine-5-carboxylic acid ethyl ester], for which, in data set [2], the thermodynamic solubility amounted to 668 µg/mL (≈ 1260 µM). Moreover, in data set [1], the “Human Hepatic Clearance” value is recorded as 10.02 mL/min/kg.

For `CCOC(=O)C1=C(CN2CCOC[C@H]2C(=O)O)NC(c2cccc(C)n2)=N[C@H]1c1ccc(F)cc1Cl` [Example 37, (S)-4-[(R)-6-(2-Chloro-4-fluoro-phenyl)-5-ethoxycarbonyl-2-(6-methyl-pyridin-2-yl)-3,6-dihydro-pyrimidin-4-ylmethyl]-morpholine-3-carboxylic acid], in data set [2], the thermodynamic solubility was > 593 µg/mL. In data set [1], the “Human Hepatic Clearance” value was 7 mL/min/kg.

In the case of `COC(=O)C1=C(CN2CC(F)(F)C[C@H]2C(=O)O)NC(c2nc(C)cn2C)=NC1c1ccc(F)cc1Cl` (stereo partly drawn) [Example 20, 6-((S)-2-Carboxy-4,4-difluoro-pyrrolidin-1-ylmethyl)-4-(2-chloro-4-fluoro-phenyl)-2-(1,4-dimethyl-1H-imidazol-2-yl)-1,4-dihydro-pyrimidine-5-carboxylic acid methyl ester], the thermodynamic solubility in data set [2] amounted to 683 µg/mL (≈ 1300 µM). For the same compound, the “Human Hepatic Clearance” value in data set [1] is listed as 10.74 mL/min/kg.

For the compound `COC(=O)C1=C(CN2CC(F)(F)C[C@H]2C(=O)O)NC(c2cc(C)ccn2)=N[C@H]1c1ccc(F)cc1Cl` [Example 8, (R)-6-((S)-2-Carboxy-4,4-difluoro-pyrrolidin-1-ylmethyl)-4-(2-chloro-4-fluoro-phenyl)-2-(4-methyl-pyridin-2-yl)-1,4-dihydro-pyrimidine-5-carboxylic acid methyl ester], in data set [2], the thermodynamic solubility is > 620 µg/mL. The “Human Hepatic Clearance” value in data set [1] is reported as 6.33 mL/min/kg.

`COC(=O)C1=C(CN2CCOC[C@H]2C(=O)O)NC(c2nccs2)=N[C@H]1c1cc(F)c(F)cc1Cl` [Example 21, (S)-4-[(R)-6-(2-Chloro-4,5-difluoro-phenyl)-5-methoxycarbonyl-2-thiazol-2-yl-3,6-dihydro-pyrimidin-4-ylmethyl]-morpholine-3-carboxylic acid] showed a solubility (thermodynamic) in data set [2] of 828 µg/mL (≈ 1610 µM). Besides, the “Human Hepatic Clearance” value in data set [1] was 3.08 mL/min/kg.

On to `COC(=O)C1=C(CN2CCOC[C@H]2C(=O)O)NC(c2cc(C)ccn2)=N[C@H]1c1ccc(F)cc1Cl` [Example 9, (S)-4-[(R)-6-(2-Chloro-4-fluoro-phenyl)-5-methoxycarbonyl-2-(4-methyl-pyridin-2-yl)-3,6-dihydro-pyrimidin-4-ylmethyl]-morpholine-3-carboxylic acid], for which, in data set [2], the thermodynamic solubility is > 645 µg/mL. Further, in data set [1], the “Human Hepatic Clearance” value was 10.07 mL/min/kg.

In data set [2], `COC(=O)C1=C(CN2CC(F)(F)CCC2C(=O)O)NC(c2nccs2)=N[C@H]1c1ccc(F)cc1Cl` (stereo partly drawn) [Example 7, (R)-6-(2-Carboxy-5,5-difluoro-piperidin-1-ylmethyl)-4-(2-chloro-4-fluoro-phenyl)-2-thiazol-2-yl-1,4-dihydro-pyrimidine-5-carboxylic acid methyl ester] had a thermodynamic solubility of 398 µg/mL (≈ 752 µM). Further, in data set [1], the “Human Hepatic Clearance” value stood at 6.12 mL/min/kg.

For `COC(=O)C1=C(CN2CC(F)(F)C(C)(C)[C@H]2C(=O)O)NC(c2nccs2)=N[C@H]1c1ccc(F)cc1Cl` [Example 89, (R)-6-((S)-2-Carboxy-4,4-difluoro-3,3-dimethyl-pyrrolidin-1-ylmethyl)-4-(2-chloro-4-fluoro-phenyl)-2-thiazol-2-yl-1,4-dihydro-pyrimidine-5-carboxylic acid methyl ester], the solubility (thermodynamic) in data set [2] was > 525 µg/mL. In data set [1], the “Human Hepatic Clearance” value came to 6.13 mL/min/kg.

Regarding `COC(=O)C1=C(CN2CC(F)(F)C[C@H]2C(=O)O)NC(c2ncccc2F)=N[C@H]1c1ccc(F)cc1Cl` [Example 22, (R)-6-((S)-2-Carboxy-4,4-difluoro-pyrrolidin-1-ylmethyl)-4-(2-chloro-4-fluoro-phenyl)-2-(3-fluoro-pyridin-2-yl)-1,4-dihydro-pyrimidine-5-carboxylic acid methyl ester], the thermodynamic solubility in data set [2] stood at 630 µg/mL (≈ 1200 µM). The “Human Hepatic Clearance” value in data set [1] stood at 4.82 mL/min/kg.

For the compound `COC(=O)C1=C(CN2CC(F)(F)C[C@H]2C(=O)O)NC(c2nccs2)=N[C@H]1c1ccc(Cl)cc1F` [Example 76, (R)-6-((S)-2-Carboxy-4,4-difluoro-pyrrolidin-1-ylmethyl)-4-(4-chloro-2-fluoro-phenyl)-2-thiazol-2-yl-1,4-dihydro-pyrimidine-5-carboxylic acid methyl ester], the thermodynamic solubility in data set [2] is > 630 µg/mL. Moreover, the “Human Hepatic Clearance” value in data set [1] amounted to 1.72 mL/min/kg.

The compound `COC(=O)C1=C(CN2CC(F)(F)C[C@H]2C(=O)O)NC(c2nccs2)=N[C@H]1c1ccc(C#N)cc1Cl` [Example 30, (R)-6-((S)-2-Carboxy-4,4-difluoro-pyrrolidin-1-ylmethyl)-4-(2-chloro-4-cyano-phenyl)-2-thiazol-2-yl-1,4-dihydro-pyrimidine-5-carboxylic acid methyl ester] yielded a thermodynamic solubility in data set [2] of 667 µg/mL (≈ 1280 µM). Further, the “Human Hepatic Clearance” value in data set [1] came to 6.56 mL/min/kg.

Consider `CCOC(=O)C1=C(CN2CC(F)(F)C[C@H]2C(=O)O)NC(c2nc(C(F)(F)F)cn2C)=N[C@H]1c1ccc(F)cc1Cl` [Example 40, (R)-6-((S)-2-Carboxy-4,4-difluoro-pyrrolidin-1-ylmethyl)-4-(2-chloro-4-fluoro-phenyl)-2-(1-methyl-4-trifluoromethyl-1H-imidazol-2-yl)-1,4-dihydro-pyrimidine-5-carboxylic acid ethyl ester], for which the thermodynamic solubility in data set [2] worked out at 409 µg/mL (≈ 689 µM). Further, the “Human Hepatic Clearance” value in data set [1] is listed as 8.45 mL/min/kg.

In the case of `COC(=O)C1=C(CN2CC(F)(F)C[C@H]2C(=O)O)NC(c2nccs2)=N[C@H]1c1ccccc1Br` [Example 72, (R)-4-(2-Bromo-phenyl)-6-((S)-2-carboxy-4,4-difluoro-pyrrolidin-1-ylmethyl)-2-thiazol-2-yl-1,4-dihydro-pyrimidine-5-carboxylic acid methyl ester], in data set [2], the thermodynamic solubility was > 670 µg/mL. Besides, the “Human Hepatic Clearance” value in data set [1] worked out at 5.16 mL/min/kg.

The record behind these values is patent publication US9447086B2, “6-amino acid heteroaryldihydropyrimidines for the treatment and prophylaxis of hepatitis B virus infection” (priority 2012, dated 2016).
